Experimental data published in the supplement of paper PMC10331698.
± gives the standard deviation of the averaged measurements.

What was measured:
Test in all cases: level (log10 ratio to DMSO vehicle control); higher = higher biomarker level / cell amount than vehicle control
Conditions in all cases: in DMSO
Perfluoroheptanoic acid = compound: O=C(O)C(F)(F)C(F)(F)C(F)(F)C(F)(F)C(F)(F)C(F)(F)F [Perfluoroheptanoic acid]
Method: (§1)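 BioMAP Diversity Plus panel of 12 human primary cell co-culture systems (3C, 4H, LPS, SAg, BT, BF4T, BE3C, CASM3C, HDF3CGF, KF3CT, MyoF, Mphg). Compounds were added 1 h before stimulation and left for 24 h (MyoF 48 h; BT 72 h for soluble read-outs or 6 d for IgG). Biomarkers were read by ELISA, cytotoxicity by SRB, PBMC viability and proliferation by Alamar Blue. Each well value was divided by the mean of 8 DMSO control wells on the same plate and log10 transformed; duplicate blinded samples were tested at 4 concentrations.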

Perfluorobutanoic acid = compound: O=C(O)C(F)(F)C(F)(F)C(F)(F)F [Perfluorobutanoic acid]
Method: as §1

[1] = compound: COC(=O)CCC(F)(F)C(F)(F)C(F)(F)C(F)(F)F [Methyl 2H,2H,3H,3H-perfluoroheptanoate]
Method: as §1

[2] = compound: C=CC(F)(F)C(F)(F)C(F)(F)C(F)(F)C(F)(F)C(F)(F)C(F)(F)C(F)(F)C=C [1,8-Divinylperfluorooctane]
Method: as §1

[3] = compound: O=C(O)C(F)(F)OC(F)(F)C(F)(F)OC(F)(F)F [Perfluoro-3,6-dioxaheptanoic acid]
Method: as §1

[4] = compound: O=C(O)C(F)(F)OC(F)(F)C(F)(F)OC(F)(F)C(=O)O [Perfluoro-3,6-dioxaoctane-1,8-dioic acid]
Method: as §1

[5] = compound: FC(F)(F)C(F)(F)C(F)(F)C(F)(F)C(F)(F)C(F)(F)C(F)(F)C(F)(F)CCS [2-(Perfluorooctyl)ethanthiol]
Method: as §1

| Test System | level (log10) (Perfluoroheptanoic acid; 6700 nM) | level (log10) (Perfluoroheptanoic acid; 20000 nM) | level (log10) (Perfluoroheptanoic acid; 60000 nM) | level (log10) (Perfluorobutanoic acid; 6700 nM) | level (log10) (Perfluorobutanoic acid; 20000 nM) | level (log10) (Perfluorobutanoic acid; 60000 nM) | level (log10) ([1]; 6700 nM) | level (log10) ([1]; 20000 nM) | level (log10) ([1]; 60000 nM) | level (log10) ([2]; 6700 nM) | level (log10) ([2]; 20000 nM) | level (log10) ([3]; 6700 nM) | level (log10) ([3]; 20000 nM) | level (log10) ([3]; 60000 nM) | level (log10) ([4]; 6700 nM) | level (log10) ([4]; 20000 nM) | level (log10) ([4]; 60000 nM) | level (log10) ([5]; 6700 nM) | level (log10) ([5]; 20000 nM) |
| --- | --- | --- | --- | --- | --- | --- | --- | --- | --- | --- | --- | --- | --- | --- | --- | --- | --- | --- | --- |
| SAg:SRB | -0.0155 ± 0.013 | 0.001 ± 0.011 | -0.0385 ± 0.016 | -0.013 ± 0.03 | -0.005 ± 0.02 | -0.0075 ± 0.011 | 0.008 ± 0.027 | 0.0005 ± 0.0064 | -0.0085 ± 0.0092 | -0.0005 ± 0.0021 | 0.0135 ± 0.0021 | -0.0085 ± 0.0035 | -0.0175 ± 0.00071 | -0.008 ± 0.0085 | 0.007 ± 0.013 | 0.0005 ± 0.0064 | 0.0045 ± 0.00071 | 0.002 ± 0.0014 | -0.004 ± 0.0014 |
| BF4T:Keratin 8/18 | -0.0285 ± 0.0092 | -0.018 ± 0.0057 | 0.0045 ± 0.026 | -0.0015 ± 0.0092 | -0.011 ± 0.011 | 0.0075 ± 0.018 | 0.007 ± 0.033 | 0.0285 ± 0.033 | 0.0225 ± 0.011 | 0.023 ± 0.033 | -0.003 ± 0.033 | -0.025 ± 0.023 | -0.001 ± 0.014 | -0.0095 ± 0.018 | -0.0075 ± 0.022 | -0.008 ± 0.0014 | 0.0025 ± 0.019 | -0.0415 ± 0.0064 | -0.0615 ± 0.03 |
| BT:sIL-6 | 0.02 ± 0.065 | 0.0175 ± 0.044 | -0.0375 ± 0.071 | 0.019 ± 0.064 | 0.055 ± 0.033 | -0.0415 ± 0.088 | 0.0555 ± 0.035 | 0.007 ± 0.018 | -0.033 ± 0.038 | 0.039 ± 0.016 | 0.0415 ± 0.071 | 0.021 ± 0.059 | -0.009 ± 0.059 | -0.0235 ± 0.064 | 0.018 ± 0.013 | -0.007 ± 0.0042 | -0.0375 ± 0.00071 | 0.011 ± 0.042 | -0.02 ± 0.041 |
| BF4T:uPA | -0.017 ± 0.0057 | -0.0115 ± 0.012 | 0.009 ± 0.0085 | -0.005 ± 0.0071 | -0.011 ± 0.021 | -0.0025 ± 0.005 | -0.0055 ± 0.026 | 0.0015 ± 0.012 | -0.0145 ± 0.005 | -0.0045 ± 0.0064 | -0.0095 ± 0.012 | -0.04 ± 0.027 | -0.011 ± 0.011 | 0.0005 ± 0.025 | -0.007 ± 0.013 | -0.015 ± 0.0028 | 0.0035 ± 0.03 | -0.031 ± 0.011 | -0.0285 ± 0.039 |
| LPS:CCL2/MCP-1 | -0.0025 ± 0.021 | -0.005 ± 0.0028 | 0.032 ± 0.011 | -0.011 ± 0.011 | -0.01 ± 0.011 | 0.0085 ± 0.025 | -0.011 ± 0.013 | -0.013 ± 0.0071 | -0.0065 ± 0.00071 | 0.0065 ± 0.021 | 0.0145 ± 0.029 | 0.0005 ± 0.022 | -0.001 ± 0.04 | -0.0085 ± 0.025 | -0.02 ± 0.023 | -0.011 ± 0.021 | 0.0075 ± 0.036 | 0.018 | 0.026 ± 0.013 |
| BF4T:CD106/VCAM-1 | -0.0015 ± 0.029 | 0.0115 ± 0.015 | 0.029 ± 0.0099 | -0.0185 ± 0.029 | 0.0035 ± 0.028 | 0.028 ± 0.072 | -0.001 ± 0.02 | 0.002 ± 0.0028 | 0.0015 ± 0.0064 | 0.0015 ± 0.016 | 0.0065 ± 0.018 | -0.035 ± 0.055 | -0.0205 ± 0.032 | -0.01 ± 0.017 | -0.0385 ± 0.022 | -0.042 ± 0.0071 | 0.006 ± 0.071 | -0.003 ± 0.051 | -0.0605 ± 0.0078 |
| BF4T:CD54/ICAM-1 | -0.022 ± 0.0071 | -0.011 ± 0.0085 | 0.004 ± 0.0071 | 0.007 ± 0.0057 | -0.002 ± 0.0071 | -0.002 ± 0.018 | -0.025 ± 0.034 | -0.0195 ± 0.019 | -0.026 ± 0.027 | -0.0115 ± 0.021 | -0.0095 ± 0.022 | 0.0115 ± 0.005 | -0.009 ± 0.0028 | -0.012 ± 0.0071 | -0.0025 ± 0.018 | -0.007 ± 0.0057 | 0.012 ± 0.027 | 0.0025 ± 0.005 | -0.003 ± 0.0014 |
| BT:sIL-17A | 0.047 ± 0.027 | 0.0865 ± 0.16 | -0.0095 ± 0.22 | 0.0335 ± 0.018 | -0.0265 ± 0.025 | -0.019 ± 0.021 | -0.0765 ± 0.18 | 0.001 ± 0.11 | -0.0075 ± 0.064 | -0.0055 ± 0.026 | 0.0625 ± 0.079 | -0.0275 ± 0.093 | -0.102 ± 0.26 | -0.155 ± 0.16 | -0.0535 ± 0.049 | 0.154 ± 0.19 | 0.0055 ± 0.047 | -0.0475 ± 0.022 | -0.05 ± 0.042 |
| LPS:SRB | -0.019 ± 0.0085 | 0.001 ± 0.0028 | -0.019 ± 0.0099 | -0.006 ± 0.028 | -0.013 ± 0.0071 | -0.001 ± 0.0099 | 0.006 ± 0.023 | 0.001 ± 0.011 | -0.0045 ± 0.011 | -0.005 ± 0.0057 | 0.013 ± 0.0099 | -0.011 ± 0.0028 | -0.0105 ± 0.00071 | -0.0095 ± 0.00071 | 0.007 ± 0.011 | 0.005 ± 0.021 | 0.0115 ± 0.025 | 0.0025 ± 0.0078 | -0.003 ± 0.014 |
| BT:sIL-17F | -0.0725 ± 0.13 | -0.023 ± 0.21 | -0.013 ± 0.045 | 0.081 ± 0.035 | 0.065 ± 0.0014 | -0.035 ± 0.024 | 0.014 ± 0.12 | -0.0295 ± 0.052 | -0.024 ± 0.068 | 0.012 ± 0.037 | 0.051 ± 0.0057 | -0.0035 ± 0.18 | -0.033 ± 0.027 | -0.0495 ± 0.021 | -0.146 ± 0.0057 | -0.102 ± 0.057 | -0.0675 ± 0.022 | -0.068 ± 0.055 | 0.092 ± 0.062 |
| BF4T:CCL26/Eotaxin-3 | 0.0145 ± 0.019 | -0.0055 ± 0.013 | -0.031 ± 0.081 | -0.0225 ± 0.042 | 0.0075 ± 0.0021 | 0.008 ± 0.028 | -0.0095 ± 0.005 | -0.0175 ± 0.0092 | -0.016 ± 0.0042 | -0.0405 ± 0.019 | -0.0355 ± 0.013 | -0.039 ± 0.048 | -0.0195 ± 0.021 | -0.0615 ± 0.1 | -0.048 ± 0.059 | -0.037 ± 0.033 | 0.0145 ± 0.11 | -0.0585 ± 0.04 | -0.037 ± 0.0099 |
| BF4T:MMP-1 | -0.0005 ± 0.028 | 0.001 ± 0.03 | 0.039 ± 0.051 | 0.0045 ± 0.022 | -0.01 ± 0.017 | 0.0075 ± 0.015 | 0.0015 ± 0.013 | -0.007 ± 0.0028 | 0.014 ± 0.021 | -0.0045 ± 0.005 | 0.0135 ± 0.035 | -0.0125 ± 0.025 | -0.004 ± 0.028 | -0.001 ± 0.013 | 0.0075 ± 0.0064 | 0.007 ± 0.027 | 0.0185 ± 0.032 | 0.003 ± 0.0085 | 0.01 ± 0.0099 |
| BE3C:HLA-DR | -0.009 ± 0.0014 | -0.004 ± 0.0014 | 0.002 ± 0.027 | -0.0085 ± 0.018 | 0.007 ± 0.0014 | -0.027 ± 0.013 | -0.016 | 0.004 ± 0.0028 | -0.0235 ± 0.03 | 0.021 ± 0.016 | 0.014 | -0.0205 ± 0.054 | -0.01 ± 0.035 | -0.0225 ± 0.056 | -0.0025 ± 0.00071 | -0.02 ± 0.013 | 0.0085 ± 0.025 | -0.0075 ± 0.0035 | -0.0135 ± 0.0092 |
| 4H:CCL2/MCP-1 | -0.0115 ± 0.0064 | -0.0165 ± 0.013 | 0.025 ± 0.024 | -0.0185 ± 0.012 | -0.05 ± 0.028 | 0.0005 ± 0.079 | -0.048 ± 0.033 | -0.0435 ± 0.025 | 0.0125 ± 0.023 | -0.0315 ± 0.005 | 0.013 ± 0.035 | -0.0265 ± 0.037 | -0.0345 ± 0.018 | 0.031 ± 0.0085 | 0.003 ± 0.041 | -0.032 ± 0.018 | 0.0205 ± 0.0035 | -0.02 ± 0.017 | 0.0395 ± 0.035 |
| 3C:CXCL8/IL-8 | 0.0285 ± 0.04 | 0.0305 ± 0.056 | 0.0955 ± 0.088 | 0.001 ± 0.028 | -0.0035 ± 0.0064 | 0.0205 ± 0.03 | -0.021 ± 0.023 | -0.0045 ± 0.021 | 0.012 ± 0.03 | -0.023 ± 0.018 | 0.011 ± 0.034 | 0.0235 ± 0.012 | 0.002 ± 0.035 | 0.0825 ± 0.074 | -0.015 ± 0.051 | -0.013 ± 0.034 | -0.007 ± 0.059 | 0.002 ± 0.018 | 0.044 ± 0.028 |
| 4H:CCL26/Eotaxin-3 | 0.0055 ± 0.0064 | 0.0045 ± 0.0092 | -0.015 ± 0.0085 | -0.0135 ± 0.016 | -0.007 ± 0.024 | 0.015 ± 0.018 | -0.0075 ± 0.0064 | 0.0175 ± 0.0078 | 0.0025 ± 0.005 | 0.013 ± 0.0085 | 0.0345 ± 0.013 | -0.0115 ± 0.016 | 0.0075 ± 0.0064 | -0.024 ± 0.03 | 0.0045 ± 0.022 | 0.017 ± 0.021 | 0.0085 ± 0.0092 | 0.008 ± 0.017 | -0.0145 ± 0.0064 |
